Laboratory results taken from patent publication US7355033B2, “Screening for West Nile Virus antiviral therapy” (Health Research, Inc., priority 2002, dated 2008).

Tests used:
[1] = test system: lineage I WNV replicon (Rluc/NeoRep); experiment: Rluc activity in BHK-21 reporting cell line containing WNV Rluc/NeoRep replicon; format: cell-based; conditions: West Nile virus, 24 h compound treatment, 12-well plates, estimated from Rluc curves, read-out: EC50 (compound concentration required to inhibit 50% of the Rluc activity)
Method: (§1) To test the stability of the replicon-containing cell lines, cells at various time points post-selection (p.s.) were examined for viral and Rluc protein expression, and for replicon RNA copy numbers. […] (lower two panels in FIG. 18B). […] (ii) Stable and high levels of Rluc activity were detected from cells collected on days 20, 50, and 80 p.s. (FIG. 18C). For Rluc assay, 10^6 cells were lysed in 500 microliters of lysis buffer; 20 microliters of lysate was measured for Rluc activity according to the manufacturer (Promega) using a Lumat luminometer (EG & G, Berthold, Australia). Approximately 8×10^6 light units were consistently detected from 4×10^4 cells, about 200 light units per cell. (iii) A consistent level of replicon RNA was maintained in cells at 20, 50, and 80 days p.s. (FIG. 18D). Real-time RT-PCR, targeting the viral NS1 region, was used to quantify replicon RNA as previously reported (Shi, P. Y., et al. 2002. Virology 296:219-233; Shi, P. Y., et al. 2002. J. Virol. 76:5847-56; Lo, M. K., et al. 2003. J. Virology 77, 12901-12906). Total RNA extracted from 10^6 cells was eluted in 50 microliters of RNase-free water using RNeasy kits (Qiagen); 5 microliters of RNA was quantified by real-time RT-PCR, using in vitro trancribed RNA as standards. About 10^9 replicon molecules in 10^5 cells was estimated, or about 10^4 replicon RNAs per cell.
To examine whether the reporting cell line can be used as an antiviral assay, three known WNV inhibitors were tested in the cells: 6-azauridine, an inhibitor of orotidine monophosphate decarboxylase, and mycophenolic acid and ribavirin, inhibitors of inosine monophosphate dehydrogenase (De Clercq, E. 1993. Advance Virus Res. 42:1-55; Jordan, I., et al. 2000. J. Infect. Dis. 182:1214-7; Morrey, J., et al. 2002. Antiviral Res. 55:107-116). Ribavirin has also been reported to function as a mutagen, causing lethal levels of mutagenesis within the virus population (Crotty, S., et al. 2000. Nature Med. 6:1375-9). All three compounds were purchased from Sigma (St. Louis, Mo.). Initially, the assay was performed in 12-well plates. […]

[2] = test system: lineage I WNV replicon (Rluc/NeoRep) RNA; experiment: Replicon RNA copy number by real-time RT-PCR in Rluc/NeoRep reporting cell line; format: cell-based; conditions: West Nile virus, 24 h, read-out: EC50 derived from the replicon RNA copy numbers
Method: as §1
To verify that the reduction in Rluc activity reflected the compound inhibition of viral RNA replication, RT-PCR was performed. After 24 h of compound treatment, cells from the 12-well plates were assayed for RNA amounts as described above, except that 12 μl from the 50 μl extracted RNA was used in the real-time RT-PCR assay. […] The relative potencies of the three tested compounds are also similar to those observed with the Rluc results, in the decreasing order of mycophenolic acid, 6-azauridine, and ribavirin (compare FIGS. 19A to 19B). […]

WNV = conditions: Morrey et al. 2002; read-out: EC50 derived from the standard viral infection assay; cited from earlier work

Which results are given for `O=c1cnn([C@@H]2O[C@H](CO)[C@@H](O)[C@H]2O)c(=O)[nH]1` [6-azauridine]?
EC50 [1]: 11 µM; EC50 [2]: > 300 µM; EC50 (WNV): 6.1 µM

For `COc1c(C)c2c(c(O)c1C/C=C(\C)CCC(=O)O)C(=O)OC2` [mycophenolic acid], which EC50 [1] is on record?
The EC50 was 5.4 µM.

What about the EC50 [2] of the same compound?
The EC50 was roughly 100 µM.

What about the EC50 (WNV) of the same compound?
Its EC50 is 8.4 µM.

Which results are given for `NC(=O)c1ncn([C@@H]2O[C@H](CO)[C@@H](O)[C@H]2O)n1` [ribavirin]?
EC50 [1]: 140 µM; EC50 [2]: > 300 µM; EC50 (WNV): 178 µM
